According to ChEMBL document CHEMBL4507269, “Data for DCP probe BAY-386” (2021):

Legend:
[1] = molecular target: Serine/threonine-protein kinase SBK1 (Homo sapiens) (UniProt Q52WX2); settings: Compound concentration 1000.0 nM
[2] = molecular target: Proto-oncogene tyrosine-protein kinase Src (Homo sapiens) (UniProt P12931); settings: Compound concentration 1000.0 nM
[3] = molecular target: T1, Alpha-2A adrenergic receptor (Homo sapiens) (UniProt P08913); settings: Compound concentration 10.0 uM
T1 sequence (whole entry): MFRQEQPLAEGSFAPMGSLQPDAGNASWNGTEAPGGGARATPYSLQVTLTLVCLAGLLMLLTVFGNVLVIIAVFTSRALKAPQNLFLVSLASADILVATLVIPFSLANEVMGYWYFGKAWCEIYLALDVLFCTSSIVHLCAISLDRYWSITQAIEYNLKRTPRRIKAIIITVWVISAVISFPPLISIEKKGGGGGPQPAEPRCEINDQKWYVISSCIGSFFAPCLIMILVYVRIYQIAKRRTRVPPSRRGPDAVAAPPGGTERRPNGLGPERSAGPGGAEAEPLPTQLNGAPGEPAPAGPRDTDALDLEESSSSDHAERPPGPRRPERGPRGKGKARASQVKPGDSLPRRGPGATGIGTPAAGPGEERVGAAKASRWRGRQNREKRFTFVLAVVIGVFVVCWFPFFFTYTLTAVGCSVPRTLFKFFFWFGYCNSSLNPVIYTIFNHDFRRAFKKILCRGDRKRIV

[4] = molecular target: Homeodomain-interacting protein kinase 2 (Homo sapiens) (UniProt Q9H2X6); settings: Compound concentration 1000.0 nM
[5] = molecular target: Death-associated protein kinase 1 (Homo sapiens) (UniProt P53355); settings: Compound concentration 1000.0 nM
[6] = molecular target: Serine/threonine-protein kinase 4 (Homo sapiens) (UniProt Q13043); settings: Compound concentration 1000.0 nM
[7] = system: Receptor-type tyrosine-protein kinase FLT3 (Homo sapiens), P36888 [D835H]; settings: Compound concentration 1000.0 nM
[8] = molecular target: Peripheral plasma membrane protein CASK (Homo sapiens) (UniProt O14936); settings: Compound concentration 1000.0 nM
[9] = molecular target: T2, Alpha-1A adrenergic receptor (Homo sapiens) (UniProt P35348); assay: alpha1A (h) Eurofins-Cerep Cellular and Nuclear Receptor Functional Assays; settings: Compound concentration 10.0 uM
T2 sequence (whole entry): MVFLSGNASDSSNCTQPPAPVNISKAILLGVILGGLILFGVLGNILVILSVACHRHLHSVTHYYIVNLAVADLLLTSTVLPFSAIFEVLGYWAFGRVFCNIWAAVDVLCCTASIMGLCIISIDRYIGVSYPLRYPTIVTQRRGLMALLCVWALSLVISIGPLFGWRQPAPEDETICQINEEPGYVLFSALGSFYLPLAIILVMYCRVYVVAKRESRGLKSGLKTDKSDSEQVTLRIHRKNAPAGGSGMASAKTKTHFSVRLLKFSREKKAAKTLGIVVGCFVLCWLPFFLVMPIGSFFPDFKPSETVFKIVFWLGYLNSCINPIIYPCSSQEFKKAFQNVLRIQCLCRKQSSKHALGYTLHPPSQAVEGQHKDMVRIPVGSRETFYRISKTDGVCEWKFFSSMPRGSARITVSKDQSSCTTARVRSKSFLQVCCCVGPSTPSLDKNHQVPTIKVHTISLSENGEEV

[10] = molecular target: Casein kinase I isoform epsilon (Homo sapiens) (UniProt P49674); settings: Compound concentration 1000.0 nM
[11] = molecular target: Serine/threonine-protein kinase WNK3 (Homo sapiens) (UniProt Q9BYP7); settings: Compound concentration 1000.0 nM
[12] = molecular target: Vascular endothelial growth factor receptor 2 (Homo sapiens) (UniProt P35968); settings: Compound concentration 1000.0 nM
[13] = molecular target: Cyclin-dependent kinase 4 (Homo sapiens) (UniProt P11802); settings: Compound concentration 1000.0 nM
Sequence of Cyclin-dependent kinase 4 (Homo sapiens) (P11802 whole entry, canonical isoform): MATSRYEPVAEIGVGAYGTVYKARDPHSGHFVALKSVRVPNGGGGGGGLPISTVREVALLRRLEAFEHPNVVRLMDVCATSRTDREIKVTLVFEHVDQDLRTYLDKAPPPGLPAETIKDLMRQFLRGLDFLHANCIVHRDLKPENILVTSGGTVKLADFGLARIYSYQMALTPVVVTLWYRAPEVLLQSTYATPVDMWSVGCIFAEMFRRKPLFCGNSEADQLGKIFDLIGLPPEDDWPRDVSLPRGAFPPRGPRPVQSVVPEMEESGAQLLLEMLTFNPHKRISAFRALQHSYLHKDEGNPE

[14] = molecular target: Casein kinase I isoform gamma-3 (Homo sapiens) (UniProt Q9Y6M4); settings: Compound concentration 1000.0 nM
[15] = molecular target: Serine/threonine-protein kinase 36 (Homo sapiens) (UniProt Q9NRP7); settings: Compound concentration 1000.0 nM
[16] = molecular target: Serine/threonine-protein kinase WNK4 (Homo sapiens) (UniProt Q96J92); settings: Compound concentration 1000.0 nM
Sequence of Serine/threonine-protein kinase WNK4 (Homo sapiens) (Q96J92 whole entry): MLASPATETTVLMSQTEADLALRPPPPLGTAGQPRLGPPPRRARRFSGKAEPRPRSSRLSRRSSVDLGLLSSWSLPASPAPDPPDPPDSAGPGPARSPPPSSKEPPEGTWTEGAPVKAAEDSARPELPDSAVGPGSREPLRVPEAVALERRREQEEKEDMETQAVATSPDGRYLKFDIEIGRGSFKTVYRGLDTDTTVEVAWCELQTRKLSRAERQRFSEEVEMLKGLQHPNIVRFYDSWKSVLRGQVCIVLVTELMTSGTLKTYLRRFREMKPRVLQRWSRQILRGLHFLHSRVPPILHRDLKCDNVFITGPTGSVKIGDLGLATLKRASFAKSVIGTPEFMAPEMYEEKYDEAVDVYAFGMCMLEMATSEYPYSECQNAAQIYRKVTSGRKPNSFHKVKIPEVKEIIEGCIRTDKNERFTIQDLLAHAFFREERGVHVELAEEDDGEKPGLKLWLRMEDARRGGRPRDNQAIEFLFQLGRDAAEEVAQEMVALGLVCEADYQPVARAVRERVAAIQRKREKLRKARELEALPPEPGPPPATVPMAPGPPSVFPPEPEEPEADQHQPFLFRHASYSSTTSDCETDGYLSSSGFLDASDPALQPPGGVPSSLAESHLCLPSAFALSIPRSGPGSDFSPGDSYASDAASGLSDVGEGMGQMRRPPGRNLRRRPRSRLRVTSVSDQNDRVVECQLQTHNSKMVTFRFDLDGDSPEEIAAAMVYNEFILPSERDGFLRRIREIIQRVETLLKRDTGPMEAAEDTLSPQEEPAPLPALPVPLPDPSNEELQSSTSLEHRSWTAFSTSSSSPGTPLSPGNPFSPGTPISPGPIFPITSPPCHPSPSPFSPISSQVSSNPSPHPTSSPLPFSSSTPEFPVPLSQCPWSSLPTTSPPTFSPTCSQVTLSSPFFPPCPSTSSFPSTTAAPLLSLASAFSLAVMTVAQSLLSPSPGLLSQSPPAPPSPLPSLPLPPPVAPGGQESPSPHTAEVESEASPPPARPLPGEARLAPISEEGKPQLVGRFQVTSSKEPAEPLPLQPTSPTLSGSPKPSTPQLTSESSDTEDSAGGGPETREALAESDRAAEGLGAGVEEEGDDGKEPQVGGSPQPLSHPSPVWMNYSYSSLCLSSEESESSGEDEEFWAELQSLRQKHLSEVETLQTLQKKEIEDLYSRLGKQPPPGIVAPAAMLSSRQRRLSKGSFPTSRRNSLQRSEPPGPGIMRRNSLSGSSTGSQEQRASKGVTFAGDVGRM

[17] = molecular target: NUAK family SNF1-like kinase 2 (Homo sapiens) (UniProt Q9H093); settings: Compound concentration 1000.0 nM
[18] = molecular target: Testis-specific serine/threonine-protein kinase 3 (Homo sapiens) (UniProt Q96PN8); settings: Compound concentration 1000.0 nM
[19] = molecular target: cAMP-dependent protein kinase catalytic subunit alpha (Homo sapiens) (UniProt P17612); settings: Compound concentration 1000.0 nM
[20] = molecular target: Mitogen-activated protein kinase 4 (Homo sapiens) (UniProt P31152); settings: Compound concentration 1000.0 nM
[21] = molecular target: Serine/threonine-protein kinase 10 (Homo sapiens) (UniProt O94804); settings: Compound concentration 1000.0 nM
Sequence of Serine/threonine-protein kinase 10 (Homo sapiens) (O94804 whole entry, looked up): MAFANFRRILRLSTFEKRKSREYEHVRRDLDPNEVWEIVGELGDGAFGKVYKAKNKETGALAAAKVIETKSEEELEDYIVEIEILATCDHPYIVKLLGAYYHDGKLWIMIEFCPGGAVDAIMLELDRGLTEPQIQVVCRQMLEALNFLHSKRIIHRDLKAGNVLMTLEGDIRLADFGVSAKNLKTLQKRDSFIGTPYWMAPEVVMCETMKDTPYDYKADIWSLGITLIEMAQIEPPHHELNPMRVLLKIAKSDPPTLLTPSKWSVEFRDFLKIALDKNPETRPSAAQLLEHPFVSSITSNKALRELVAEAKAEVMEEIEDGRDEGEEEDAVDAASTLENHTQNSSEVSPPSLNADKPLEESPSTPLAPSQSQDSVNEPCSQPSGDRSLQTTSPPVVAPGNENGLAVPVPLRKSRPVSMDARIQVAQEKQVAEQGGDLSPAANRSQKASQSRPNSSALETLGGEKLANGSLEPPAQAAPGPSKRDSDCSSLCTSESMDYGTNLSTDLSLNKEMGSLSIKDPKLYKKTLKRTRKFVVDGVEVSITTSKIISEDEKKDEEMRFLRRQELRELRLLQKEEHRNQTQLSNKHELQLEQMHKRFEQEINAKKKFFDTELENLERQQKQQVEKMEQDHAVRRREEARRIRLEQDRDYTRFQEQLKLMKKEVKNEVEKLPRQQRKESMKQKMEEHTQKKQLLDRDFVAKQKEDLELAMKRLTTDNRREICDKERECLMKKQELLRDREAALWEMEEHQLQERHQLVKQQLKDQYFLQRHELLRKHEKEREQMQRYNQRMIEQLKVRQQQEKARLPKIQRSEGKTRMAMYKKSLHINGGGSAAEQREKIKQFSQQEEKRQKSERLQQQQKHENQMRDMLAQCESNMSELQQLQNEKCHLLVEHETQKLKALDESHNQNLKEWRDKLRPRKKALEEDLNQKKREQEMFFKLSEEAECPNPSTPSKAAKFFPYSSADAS

[22] = molecular target: Mitogen-activated protein kinase kinase kinase kinase 2 (Homo sapiens) (UniProt Q12851); settings: Compound concentration 1000.0 nM
[23] = molecular target: Angiopoietin-1 receptor (Homo sapiens) (UniProt Q02763); settings: Compound concentration 1000.0 nM
[24] = molecular target: Mitogen-activated protein kinase kinase kinase 9 (Homo sapiens) (UniProt P80192); settings: Compound concentration 1000.0 nM
[25] = molecular target: Mitogen-activated protein kinase 6 (Homo sapiens) (UniProt Q16659); settings: Compound concentration 1000.0 nM
Sequence of Mitogen-activated protein kinase 6 (Homo sapiens) (Q16659 whole entry): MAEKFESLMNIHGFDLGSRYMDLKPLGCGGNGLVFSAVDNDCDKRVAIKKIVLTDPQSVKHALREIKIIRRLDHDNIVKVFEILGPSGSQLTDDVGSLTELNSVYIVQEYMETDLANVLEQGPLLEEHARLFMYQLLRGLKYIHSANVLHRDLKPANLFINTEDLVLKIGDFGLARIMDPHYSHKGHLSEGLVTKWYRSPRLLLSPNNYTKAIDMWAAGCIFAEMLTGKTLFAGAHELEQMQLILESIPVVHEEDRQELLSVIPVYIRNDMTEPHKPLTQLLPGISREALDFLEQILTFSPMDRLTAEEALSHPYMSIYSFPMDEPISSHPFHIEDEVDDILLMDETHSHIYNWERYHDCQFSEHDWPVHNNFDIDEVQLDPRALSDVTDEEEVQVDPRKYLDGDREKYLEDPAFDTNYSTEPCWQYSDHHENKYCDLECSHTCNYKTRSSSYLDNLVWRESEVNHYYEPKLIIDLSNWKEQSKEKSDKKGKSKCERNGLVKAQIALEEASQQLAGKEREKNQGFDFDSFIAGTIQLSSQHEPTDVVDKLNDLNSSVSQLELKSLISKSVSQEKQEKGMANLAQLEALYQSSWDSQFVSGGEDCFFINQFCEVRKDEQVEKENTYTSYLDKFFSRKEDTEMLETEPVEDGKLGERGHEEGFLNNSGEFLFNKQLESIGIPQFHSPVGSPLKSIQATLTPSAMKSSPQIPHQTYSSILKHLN

[26] = molecular target: Motilin receptor (Homo sapiens) (UniProt O43193); assay: motilin (h) Eurofins-Cerep Cellular and Nuclear Receptor Functional Assays; settings: Compound concentration 10.0 uM
Sequence of Motilin receptor (Homo sapiens) (O43193 whole entry): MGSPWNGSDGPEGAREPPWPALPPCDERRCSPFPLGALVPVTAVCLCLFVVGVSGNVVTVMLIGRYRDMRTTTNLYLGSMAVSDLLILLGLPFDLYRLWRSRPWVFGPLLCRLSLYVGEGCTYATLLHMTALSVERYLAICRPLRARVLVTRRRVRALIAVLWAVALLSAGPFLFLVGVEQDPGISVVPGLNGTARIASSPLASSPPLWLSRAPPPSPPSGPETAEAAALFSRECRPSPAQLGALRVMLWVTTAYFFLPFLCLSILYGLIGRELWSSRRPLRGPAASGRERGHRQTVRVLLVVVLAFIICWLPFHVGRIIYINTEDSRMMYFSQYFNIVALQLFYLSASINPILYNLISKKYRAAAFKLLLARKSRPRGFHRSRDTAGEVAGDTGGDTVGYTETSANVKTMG

[27] = system: Receptor-type tyrosine-protein kinase FLT3 (Homo sapiens), P36888 [UNDEFINED MUTATION]; settings: Compound concentration 1000.0 nM
[28] = molecular target: 1-phosphatidylinositol 3-phosphate 5-kinase (Homo sapiens) (UniProt Q9Y2I7); settings: Compound concentration 1000.0 nM
[29] = molecular target: TGF-beta receptor type-2 (Homo sapiens) (UniProt P37173); settings: Compound concentration 1000.0 nM
[30] = system: Tyrosine-protein kinase ABL1 (Homo sapiens), P00519 [F317L]; settings: Compound concentration 1000.0 nM
[31] = molecular target: Serine/threonine-protein kinase haspin (Homo sapiens) (UniProt Q8TF76); settings: Compound concentration 1000.0 nM
Sequence of Serine/threonine-protein kinase haspin (Homo sapiens) (Q8TF76 whole entry): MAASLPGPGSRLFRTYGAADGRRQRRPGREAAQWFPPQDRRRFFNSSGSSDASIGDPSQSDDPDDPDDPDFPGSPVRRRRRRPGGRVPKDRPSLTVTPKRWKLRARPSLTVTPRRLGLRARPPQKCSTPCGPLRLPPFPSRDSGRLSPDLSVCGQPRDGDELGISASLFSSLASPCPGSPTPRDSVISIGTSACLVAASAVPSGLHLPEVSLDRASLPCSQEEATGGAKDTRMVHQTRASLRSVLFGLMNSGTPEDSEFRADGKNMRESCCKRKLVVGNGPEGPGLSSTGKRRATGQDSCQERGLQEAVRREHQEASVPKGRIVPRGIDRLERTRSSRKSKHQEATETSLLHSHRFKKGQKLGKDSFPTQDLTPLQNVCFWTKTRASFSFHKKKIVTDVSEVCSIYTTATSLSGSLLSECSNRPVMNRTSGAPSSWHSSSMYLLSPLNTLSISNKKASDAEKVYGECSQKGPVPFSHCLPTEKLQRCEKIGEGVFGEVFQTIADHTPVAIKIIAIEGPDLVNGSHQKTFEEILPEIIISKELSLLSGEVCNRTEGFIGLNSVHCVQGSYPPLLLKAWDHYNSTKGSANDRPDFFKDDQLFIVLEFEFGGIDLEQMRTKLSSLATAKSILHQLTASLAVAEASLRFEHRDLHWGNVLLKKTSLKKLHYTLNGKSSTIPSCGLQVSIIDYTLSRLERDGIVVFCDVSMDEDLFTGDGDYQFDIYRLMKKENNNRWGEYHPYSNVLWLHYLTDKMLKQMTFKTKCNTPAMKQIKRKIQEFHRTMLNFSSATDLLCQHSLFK

[32] = molecular target: Serine/threonine-protein kinase 26 (Homo sapiens) (UniProt Q9P289); settings: Compound concentration 1000.0 nM

Sequence of Serine/threonine-protein kinase SBK1 (Homo sapiens) (Q52WX2 whole entry): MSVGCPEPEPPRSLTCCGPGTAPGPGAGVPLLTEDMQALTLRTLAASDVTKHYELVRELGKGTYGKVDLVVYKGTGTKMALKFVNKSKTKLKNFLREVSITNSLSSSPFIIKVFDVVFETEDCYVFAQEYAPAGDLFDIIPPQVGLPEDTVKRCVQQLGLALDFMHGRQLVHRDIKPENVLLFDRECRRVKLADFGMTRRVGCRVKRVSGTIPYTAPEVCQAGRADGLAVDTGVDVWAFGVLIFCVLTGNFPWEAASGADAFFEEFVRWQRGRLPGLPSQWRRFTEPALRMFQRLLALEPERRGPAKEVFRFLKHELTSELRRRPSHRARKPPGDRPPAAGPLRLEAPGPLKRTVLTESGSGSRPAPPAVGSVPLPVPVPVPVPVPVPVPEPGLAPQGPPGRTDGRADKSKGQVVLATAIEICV

SMILES | residual activity [1] | residual activity [2] | inhibition [3] | residual activity [4] | residual activity [5] | residual activity [6] | residual activity [7] | residual activity [8] | % Inhibition of Control Agonist Response (Mean n=2) [9] | % of Control Agonist Response (Mean n=2) [9] | residual activity [10] | residual activity [11] | residual activity [12] | residual activity [13] | residual activity [14] | residual activity [15] | residual activity [16] | residual activity [17] | residual activity [18] | residual activity [19] | further results
O=C(N1CCS(=O)(=O)CC1)N1C[C@H](c2ccc(OC(F)(F)F)cc2)C[C@H](c2nc(C3CC3)no2)C1 [BAY-386] | 90% | 97% | -0.34% | 100% | 92% | 100% | 92% | 100% | 18.8% | 11.5% | 100% | 99% | 88% | 18% | 100% | 100% | 100% | 100% | 100% | 100% | residual activity [20]: 100%; residual activity [21]: 100%; residual activity [22]: 94%; residual activity [23]: 100%; residual activity [24]: 100%; residual activity [25]: 100%; % Inhibition of Control Agonist Response (Mean n=2) [26]: 29.2%; % of Control Agonist Response (Mean n=2) [26]: 16.7%; residual activity [27]: 100%; residual activity [28]: 100%; residual activity [29]: 100%; residual activity [30]: 92%; residual activity [31]: 95%; residual activity [32]: 94%
Cc1noc([C@H]2C[C@@H](c3ccc(C(F)(F)F)cc3)CN(C(=O)N3CCS(=O)(=O)C3)C2)n1 [BAY-448] | 100% | 96% | 6.96% | 100% | 100% | 100% | 100% | 93% | 4.3% | -0.4% | 100% | 76% | 100% | 100% | 100% | 100% | 100% | 100% | 100% | 100% | residual activity [20]: 100%; residual activity [21]: 100%; residual activity [22]: 100%; residual activity [23]: 100%; residual activity [24]: 100%; residual activity [25]: 100%; % Inhibition of Control Agonist Response (Mean n=2) [26]: 0.9%; % of Control Agonist Response (Mean n=2) [26]: 6.9%; residual activity [27]: 89%; residual activity [28]: 100%; residual activity [29]: 100%; residual activity [30]: 85%; residual activity [31]: 100%; residual activity [32]: 74%
